Source: US8765773B2, “Substituted hydroxamic acids and uses thereof” (Millennium Pharmaceuticals, Inc., priority 2010, dated 2014)

molecular target: T1, purified human HDAC6 (Homo sapiens, UniProt Q9UBN7); test: HDAC6 Enzyme Assay; assay type: biochemical; conditions: compound concentration 0.37 μM, read-out: Percent Inhibition
T1 construct: purchased BPS Bioscience 5006
T1 sequence (Q9UBN7 1-1215): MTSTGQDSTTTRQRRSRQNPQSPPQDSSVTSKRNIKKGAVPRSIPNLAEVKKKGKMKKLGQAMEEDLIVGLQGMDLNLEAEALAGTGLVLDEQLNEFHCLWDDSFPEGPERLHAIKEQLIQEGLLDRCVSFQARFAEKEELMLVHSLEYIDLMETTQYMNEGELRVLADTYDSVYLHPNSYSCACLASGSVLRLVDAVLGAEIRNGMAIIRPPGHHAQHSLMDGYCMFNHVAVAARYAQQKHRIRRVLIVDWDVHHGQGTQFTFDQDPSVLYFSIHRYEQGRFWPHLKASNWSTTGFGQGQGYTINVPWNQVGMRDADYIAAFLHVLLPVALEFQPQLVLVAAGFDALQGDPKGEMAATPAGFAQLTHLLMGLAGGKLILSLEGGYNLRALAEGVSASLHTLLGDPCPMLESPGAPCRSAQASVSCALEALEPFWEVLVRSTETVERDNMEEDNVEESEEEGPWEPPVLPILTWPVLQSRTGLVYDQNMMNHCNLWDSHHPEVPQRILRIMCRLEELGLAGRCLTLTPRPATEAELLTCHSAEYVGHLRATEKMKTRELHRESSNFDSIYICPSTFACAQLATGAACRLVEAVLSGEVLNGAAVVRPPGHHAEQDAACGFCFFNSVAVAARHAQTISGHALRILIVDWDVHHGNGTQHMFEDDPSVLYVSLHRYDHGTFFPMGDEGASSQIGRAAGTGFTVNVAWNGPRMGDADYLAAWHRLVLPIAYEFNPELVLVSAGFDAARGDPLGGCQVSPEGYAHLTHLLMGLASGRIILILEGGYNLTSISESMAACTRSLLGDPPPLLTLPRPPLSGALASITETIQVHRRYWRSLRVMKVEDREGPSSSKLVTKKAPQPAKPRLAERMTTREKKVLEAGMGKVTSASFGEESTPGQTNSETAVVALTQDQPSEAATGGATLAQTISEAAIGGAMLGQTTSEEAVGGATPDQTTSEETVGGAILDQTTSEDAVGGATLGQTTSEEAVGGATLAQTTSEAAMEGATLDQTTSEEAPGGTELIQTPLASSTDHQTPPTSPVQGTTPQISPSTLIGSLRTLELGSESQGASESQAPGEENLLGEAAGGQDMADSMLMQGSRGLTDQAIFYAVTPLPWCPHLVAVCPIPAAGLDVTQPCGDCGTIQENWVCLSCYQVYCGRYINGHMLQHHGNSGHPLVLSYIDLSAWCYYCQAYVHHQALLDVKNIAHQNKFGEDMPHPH
Procedure, shortened: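 Readout is AMC fluorescence (Ex 340 nm, Em 460 nm) after trypsin cleavage of the deacetylated Ac-Arg-Gly-Lys(Ac)-AMC product. Reaction: purified human HDAC6, compound or vehicle, 1 hour, 30° C, quenched by trichostatin A. Single-concentration percent inhibition or IC50 calculated versus DMSO-treated samples.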

| inhibition at 0.37 µM [%] | Compound |
| --- | --- |
| 90.4 | COc1ncccc1-c1cccc(CCn2cnc3ccc(C(=O)NO)cc3c2=O)c1 [Compound I-320, N-hydroxy-3-{2-[3-(2-methoxypyridin-3-yl)phenyl]ethyl}-4-oxo-3,4-dihydroquinazoline-6-carboxamide] |
| 90.3 | O=C(NO)c1ccc2ccn(-c3ccccn3)c(=O)c2c1 [Compound I-310, N-hydroxy-1-oxo-2-pyridin-2-yl-1,2-dihydroisoquinoline-7-carboxamide] |
| 73.9 | Cc1cn(Cc2ccccc2)c(=O)c2cc(C(=O)NO)ccc12 [Compound I-400, 2-benzyl-N-hydroxy-4-methyl-1-oxo-1,2-dihydroisoquinoline-7-carboxamide] |
| 89.6 | O=C(NO)c1ccc2ncn(CCc3cccc(-c4cccc(C(=O)NC5CC5)c4)c3)c(=O)c2c1 [Compound I-291, 3-(2-{3′-[(cyclopropylamino)carbonyl]biphenyl-3-yl}ethyl)-N-hydroxy-4-oxo-3,4-dihydroquinazoline-6-carboxamide] |
| 93 | O=C(NO)c1ccc2ccn(-c3ccc(Cl)cc3)c(=O)c2c1 [Compound I-247, 2-(4-chlorophenyl)-N-hydroxy-1-oxo-1,2-dihydroisoquinoline-7-carboxamide] |
| 90.4 | O=C(NO)c1ccc2ncn(CCNCc3cccc(-n4cccn4)c3)c(=O)c2c1 [Compound I-332, N-hydroxy-4-oxo-3-(2-{[3-(1H-pyrazol-1-yl)benzyl]amino}ethyl)-3,4-dihydroquinazoline-6-carboxamide] |

The next lines start with the compound.

| Compound | inhibition at 0.37 µM [%] |
| --- | --- |
| O=C(NO)c1ccc2ncn(Cc3cccc(S(=O)(=O)c4ccccc4)c3)c(=O)c2c1 [Compound I-142, N-hydroxy-4-oxo-3-[3-(phenylsulfonyl)benzyl]-3,4-dihydroquinazoline-6-carboxamide] | 97.4 |
| Cn1c(-c2nc3cc(C(=O)NO)ccc3c(=O)n2Cc2ccc(C(F)(F)F)cc2)cc2ccccc21 [Compound I-166, N-hydroxy-2-(1-methyl-1H-indol-2-yl)-4-oxo-3-[4-(trifluoromethyl)benzyl]-3,4-dihydroquinazoline-7-carboxamide] | 78.8 |
| O=C(NO)c1ccc2c(=O)n(Cc3ccc(C(F)(F)F)cc3)c(-c3cccc4cccnc34)nc2c1 [Compound I-26, N-hydroxy-4-oxo-2-quinolin-8-yl-3-[4-(trifluoromethyl)benzyl]-3,4-dihydroquinazoline-7-carboxamide] | 92.3 |
| CC(C)c1cccc(-c2cccc(Cn3cnc4ccc(C(=O)NO)cc4c3=O)c2)c1 [Compound I-182, N-hydroxy-3-[(3′-isopropylbiphenyl-3-yl)methyl]-4-oxo-3,4-dihydroquinazoline-6-carboxamide] | 78.9 |

same assay, conditions: compound concentration 0.412 μM, read-out: Percent Inhibition

| inhibition at 0.412 µM [%] | Compound |
| --- | --- |
| 94.5 | O=C(NO)c1ccc2ccn(CCCn3cccc3)c(=O)c2c1 [Compound I-269, N-hydroxy-1-oxo-2-[3-(1H-pyrrol-1-yl)propyl]-1,2-dihydroisoquinoline-7-carboxamide] |
| 84.5 | CCOCCn1cnc2ccc(C(=O)NO)cc2c1=O [Compound I-226, 3-(2-ethoxyethyl)-N-hydroxy-4-oxo-3,4-dihydroquinazoline-6-carboxamide] |
| 91.1 | O=C(NO)c1ccc2c(=O)n(CCc3ccccn3)c(-c3ccccc3)nc2c1 [Compound I-263, N-hydroxy-4-oxo-2-phenyl-3-(2-pyridin-2-ylethyl)-3,4-dihydroquinazoline-7-carboxamide] |
| 97.6 | O=C(NO)c1ccc2ccn(CCOc3ccccc3)c(=O)c2c1 [Compound I-252, N-hydroxy-1-oxo-2-(2-phenoxyethyl)-1,2-dihydroisoquinoline-7-carboxamide] |
| 26.2 | O=C(NO)c1ccc2c(=O)[nH]c(C(=O)NC3CCNCC3)nc2c1 [Compound I-278, N^7-hydroxy-4-oxo-N^2-piperidin-4-yl-3,4-dihydroquinazoline-2,7-dicarboxamide] |
| 97.7 | O=C(NO)c1ccc2ccn(CCOc3ccc(Cl)cc3)c(=O)c2c1 [Compound I-246, 2-[2-(4-chlorophenoxy)ethyl]-N-hydroxy-1-oxo-1,2-dihydroisoquinoline-7-carboxamide] |
| 87.5 | O=C(NO)c1ccc2ccn(CCCOc3ccc(Oc4ccccc4)cc3)c(=O)c2c1 [Compound I-235, N-hydroxy-1-oxo-2-[3-(4-phenoxyphenoxy)propyl]-1,2-dihydroisoquinoline-7-carboxamide] |

More lines, now with the values behind:

| Compound | inhibition at 0.412 µM [%] |
| --- | --- |
| CC(C)(C)OC(=O)N1CCC(NCc2nc3cc(C(=O)NO)ccc3c(=O)[nH]2)CC1 [Compound I-56, tert-butyl 4-[({7-[(hydroxyamino)carbonyl]-4-oxo-3,4-dihydroquinazolin-2-yl}methyl)amino]piperidine-1-carboxylate] | 69 |
| O=C(NO)c1ccc2ccn(CCCOc3ccccc3-c3csnn3)c(=O)c2c1 [Compound I-160, N-hydroxy-1-oxo-2-{3-[2-(1,2,3-thiadiazol-4-yl)phenoxy]propyl}-1,2-dihydroisoquinoline-7-carboxamide] | 87.4 |
| CC(C)(C)OC(=O)N(CCCn1ccc2ccc(C(=O)NO)cc2c1=O)c1ccncc1 [Compound I-89, tert-butyl {3-[7-[(hydroxyamino)carbonyl]-1-oxoisoquinolin-2(1H)-yl]propyl}pyridin-4-ylcarbamate] | 95.6 |
| O=C(NO)c1ccc2ccn(Cc3ccc(-n4cncn4)cc3)c(=O)c2c1 [Compound I-223, N-hydroxy-1-oxo-2-[4-(1H-1,2,4-triazol-1-yl)benzyl]-1,2-dihydroisoquinoline-7-carboxamide] | 94.9 |
| O=C(NO)c1ccc2ccn(Cc3ccccc3Cl)c(=O)c2c1 [Compound I-162, 2-(2-chlorobenzyl)-N-hydroxy-1-oxo-1,2-dihydroisoquinoline-7-carboxamide] | 94.2 |
| O=C(NO)c1ccc2ccn(Cc3cc(F)ccc3F)c(=O)c2c1 [Compound I-198, 2-(2,5-difluorobenzyl)-N-hydroxy-1-oxo-1,2-dihydroisoquinoline-7-carboxamide] | 96.4 |
| O=C(NO)c1ccc2ccn(Cc3ccccc3)c(=O)c2c1 [Compound I-219, 2-benzyl-N-hydroxy-1-oxo-1,2-dihydroisoquinoline-7-carboxamide] | 94.1 |
| O=C(NO)c1ccc2ccn(Cc3c(F)cc(F)cc3F)c(=O)c2c1 [Compound I-102, N-hydroxy-1-oxo-2-(2,4,6-trifluorobenzyl)-1,2-dihydroisoquinoline-7-carboxamide] | 94.3 |
| O=C(NO)c1ccc2ccn(CCO)c(=O)c2c1 [Compound I-158, N-hydroxy-2-(2-hydroxyethyl)-1-oxo-1,2-dihydroisoquinoline-7-carboxamide] | 72.5 |
| CC1(C)CCC(C)(C)c2cc(Cn3ccc4ccc(C(=O)NO)cc4c3=O)ccc21 [Compound I-88, N-hydroxy-1-oxo-2-[(5,5,8,8-tetramethyl-5,6,7,8-tetrahydronaphthalen-2-yl)methyl]-1,2-dihydroisoquinoline-7-carboxamide] | 90 |
| Cc1ccn(CCn2cnc3ccc(C(=O)NO)cc3c2=O)n1 [Compound I-57, N-hydroxy-3-[2-(3-methyl-1H-pyrazol-1-yl)ethyl]-4-oxo-3,4-dihydroquinazoline-6-carboxamide] | 77.4 |
| CC(C)(C)OC(=O)N1CCC(Cn2ccc3ccc(C(=O)NO)cc3c2=O)CC1 [Compound I-184, tert-butyl 4-{[7-[(hydroxyamino)carbonyl]-1-oxoisoquinolin-2(1H)-yl]methyl}piperidine-1-carboxylate] | 88.9 |
| O=C(NO)c1ccc2ccn(CCNc3cccc(-n4cccn4)c3)c(=O)c2c1 [Compound I-108, N-hydroxy-1-oxo-2-(2-{[3-(1H-pyrazol-1-yl)phenyl]amino}ethyl)-1,2-dihydroisoquinoline-7-carboxamide] | 91.4 |
| CCN(CC)c1cccc(OCCn2ccc3ccc(C(=O)NO)cc3c2=O)c1 [Compound I-159, 2-{2-[3-(diethylamino)phenoxy]ethyl}-N-hydroxy-1-oxo-1,2-dihydroisoquinoline-7-carboxamide] | 91.3 |
